Reference: ChEMBL document CHEMBL5104192, “Late-Stage Functionalization with Cysteine Staples Generates Potent and Selective Melanocortin Receptor-1 Agonists” (J Med Chem, 2022)

Legend:
Melanocortin receptor 5 = Melanocortin receptor 5 (Homo sapiens, UniProt P33032); assay: Agonist activity at human MC5R expressed in HEK2936E cells assessed as cAMP production in presence of IBMX by time resolved fluorescence assay; type: functional, cell-based
Homo sapiens [1] = species on record: Homo sapiens; assay: Selectivity ratio of Ki for human MC4R to Ki for human MC1R
Melanocortin receptor 3 [2] = target: T1, Melanocortin receptor 3 (Homo sapiens, UniProt P41968); assay: Agonist activity at human MC3R expressed in HEK2936E cells assessed as cAMP production in presence of IBMX by time resolved fluorescence assay; type: functional, cell-based; conditions: hek2936e
T1 sequence (P41968 whole entry): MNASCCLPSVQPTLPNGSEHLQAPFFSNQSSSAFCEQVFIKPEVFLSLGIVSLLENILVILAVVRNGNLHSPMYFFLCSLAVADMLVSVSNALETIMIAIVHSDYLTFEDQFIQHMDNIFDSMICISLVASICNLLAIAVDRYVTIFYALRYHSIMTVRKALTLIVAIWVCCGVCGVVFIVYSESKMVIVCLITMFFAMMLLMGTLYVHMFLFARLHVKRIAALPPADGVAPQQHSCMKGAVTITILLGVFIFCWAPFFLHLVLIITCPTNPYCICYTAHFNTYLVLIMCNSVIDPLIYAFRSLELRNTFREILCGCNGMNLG

Melanocortin receptor 4 [3] = target: T2, Melanocortin receptor 4 (Homo sapiens, UniProt P32245); assay: Agonist activity at human MC4R expressed in HEK2936E cells assessed as cAMP production in presence of IBMX by time resolved fluorescence assay; type: functional, cell-based; conditions: hek2936e
T2 sequence (P32245 whole entry): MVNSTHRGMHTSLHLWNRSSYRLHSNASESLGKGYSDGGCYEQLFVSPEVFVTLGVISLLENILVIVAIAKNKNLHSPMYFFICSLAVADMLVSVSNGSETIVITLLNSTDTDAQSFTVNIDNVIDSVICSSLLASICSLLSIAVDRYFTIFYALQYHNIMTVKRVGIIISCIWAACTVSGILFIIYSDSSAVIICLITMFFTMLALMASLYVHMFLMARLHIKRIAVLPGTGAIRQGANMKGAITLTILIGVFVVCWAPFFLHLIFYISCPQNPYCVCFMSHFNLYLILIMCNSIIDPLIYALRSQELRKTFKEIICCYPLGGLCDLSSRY

Melanocortin receptor 4 [4] = target: T2, Melanocortin receptor 4; assay: Displacement of [125I]-NDP-alpha-MSH from human MC4R expressed in HEK2936E cell membrane measured after 16 to 23 hrs by 1450 microbeta trilux scintillation proximity assay; type: cell membranes; conditions: hek2936e
[5] = target: T3, Melanocyte-stimulating hormone receptor (Homo sapiens, UniProt Q01726); assay: Agonist activity at human MC1R expressed in HEK2936E cells assessed as cAMP production in presence of IBMX by time resolved fluorescence assay; type: functional, cell-based; conditions: hek2936e
T3 sequence (Q01726 whole entry): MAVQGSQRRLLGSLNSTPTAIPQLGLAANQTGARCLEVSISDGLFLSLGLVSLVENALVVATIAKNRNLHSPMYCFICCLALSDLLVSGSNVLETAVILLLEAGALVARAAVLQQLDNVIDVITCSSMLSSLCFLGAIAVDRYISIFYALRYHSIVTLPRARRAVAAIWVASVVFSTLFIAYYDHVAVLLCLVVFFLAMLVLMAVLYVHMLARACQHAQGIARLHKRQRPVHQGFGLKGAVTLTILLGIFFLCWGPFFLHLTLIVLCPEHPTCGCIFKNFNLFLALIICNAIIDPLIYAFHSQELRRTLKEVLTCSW

Homo sapiens [6] = species on record: Homo sapiens; assay: Selectivity ratio of EC50 for human MC4R to EC50 for human MC1R
[7] = target: T3, Melanocyte-stimulating hormone receptor; assay: Displacement of [125I]-NDP-alpha-MSH from human MC1R expressed in HEK2936E cell membrane measured after 16 to 23 hrs by 1450 microbeta trilux scintillation proximity assay; type: cell membranes; conditions: hek2936e
Homo sapiens [8] = species on record: Homo sapiens; assay: Selectivity ratio of EC50 for human MC3R to EC50 for human MC1R
Homo sapiens [9] = species on record: Homo sapiens; assay: Selectivity ratio of Ki for human MC3R to Ki for human MC1R
Melanocortin receptor 3 [10] = target: T1, Melanocortin receptor 3; assay: Displacement of [125I]-NDP-alpha-MSH from human MC3R expressed in HEK2936E cell membrane measured after 16 to 23 hrs by 1450 microbeta trilux scintillation proximity assay; type: cell membranes; conditions: hek2936e

Melanocortin receptor 5, sequence (P33032 whole entry): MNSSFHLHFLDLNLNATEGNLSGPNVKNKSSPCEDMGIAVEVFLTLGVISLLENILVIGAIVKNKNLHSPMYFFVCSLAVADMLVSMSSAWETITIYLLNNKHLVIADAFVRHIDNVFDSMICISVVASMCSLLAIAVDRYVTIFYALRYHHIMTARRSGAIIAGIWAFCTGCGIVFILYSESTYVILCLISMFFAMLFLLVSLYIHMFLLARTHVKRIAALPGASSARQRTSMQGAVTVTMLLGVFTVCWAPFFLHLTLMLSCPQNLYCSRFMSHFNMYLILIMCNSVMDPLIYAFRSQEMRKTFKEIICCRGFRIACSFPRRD

Compound	pEC50 (Melanocortin receptor 5)	Ratio Ki (Homo sapiens [1])	pEC50 (Melanocortin receptor 3 [2])	pEC50 (Melanocortin receptor 4 [3])	pKi (Melanocortin receptor 4 [4])	pEC50 [5]	Ratio EC50 (Homo sapiens [6])	pKi [7]	Ratio EC50 (Homo sapiens [8])	Ratio Ki (Homo sapiens [9])	pKi (Melanocortin receptor 3 [10])
CC[C@H](C)[C@@H]1NC(=O)[C@@H]2CCCN2C(=O)[C@H](Cc2c[nH]c3ccccc23)NC(=O)[C@H](CCCNC(=N)N)N(C)C(=O)[C@H](Cc2ccccc2)NC(=O)[C@H](Cc2cnc[nH]2)NC(=O)[C@H]([C@@H](C)O)NC(=O)[C@H](NC(C)=O)CCSCc2ccccc2CSCC[C@H](C(N)=O)NC1=O	4.82	17	6.34	6.74	5.93	8.67	85	7.16	214	191	4.88
CC[C@H](C)[C@@H]1NC(=O)[C@@H]2CCCN2C(=O)[C@H](Cc2c[nH]c3ccccc23)NC(=O)[C@H](CCCNC(=N)N)N(C)C(=O)[C@H](Cc2ccccc2)NC(=O)[C@H](Cc2cnc[nH]2)NC(=O)[C@H]([C@@H](C)O)NC(=O)[C@H](NC(C)=O)CCSCc2cccc(c2)CSCC[C@H](C(N)=O)NC1=O	4.78	9	6.42	6.72	6.34	8.79	110	7.31	219	170	5.08
